From US3940426A, “Process for producing biphenyltetracarboxylic dianhydrides” (UBE Industries, Ltd., priority 1972, dated 1976)

Key:
[1] = Solubility of biphenyltetracarboxylic acid isomers in water or an aqueous solvent; type: physicochemical; details: order among the biphenyltetracarboxylic acid isomers; FIG. 2 in water at varying temperatures
Description: The solubility was measured by maintaining each of a mixture of 9.35 g of 2,3,3',4'-biphenyltetracarboxylic acid and 10 ml. of water and a mixture of 7.53 g of 3,4,3',4'-biphenyltetracarboxylic acid and 20 ml. of water at a predetermined temperature to dissolve each of the isomers in water, separating the insoluble matter by filtration, drying the filtrate, and weighing it, to thereby obtained the amount of each isomer dissolved at the specified temperature.

[2] = Solubility of biphenyltetracarboxylic dianhydride isomers in aliphatic acid anhydride or ketone; type: physicochemical; details: compared with the 3,4,3',4'-isomer; FIG. 1 in acetic anhydride at varying temperatures
Description: Referring to FIG. 1, the ordinate represents the solubility (g/acetic anhydride: 10 ml.) and the abscissa the temperature in °C. The measurement of the solubility was performed by maintaining separate mixtures of 2.5 g of the 2,3,3',4'-isomer and 5 ml. of acetic anhydride and a mixture of 1 g of the 3,4,3',4'-isomer and 20 ml. of acetic anhydride at a predetermined temperature to dissolve each of the isomers in the acetic anhydride, separating the insoluble matter by filtration, drying the filtrate and weighing it, to thereby obtain the amount of the isomer dissolved in […] at the specified temperature.

Structure (SMILES)	solubility in water or in an aqueous solvent [1]	solubility in an aliphatic acid anhydride or ketone [2]
O=C(O)c1cccc(-c2cccc(C(=O)O)c2C(=O)O)c1C(=O)O [2,3,2',3'-isomer, 2,3,2',3'-biphenyltetracarboxylic acid]	largest solubility in water or in an aqueous solvent	
O=C(O)c1ccc(-c2cccc(C(=O)O)c2C(=O)O)cc1C(=O)O [2,3,3',4'-biphenyltetracarboxylic acid]	followed by the 2,3,3',4'-isomer	
O=C1OC(=O)c2cc(-c3cccc4c3C(=O)OC4=O)ccc21 [2,3,3',4'-biphenyltetracarboxylic dianhydride]		more soluble in an aliphatic acid anhydride or ketone than the 3,4,3',4'-isomer
O=C(O)c1ccc(-c2ccc(C(=O)O)c(C(=O)O)c2)cc1C(=O)O [3,4,3',4'-biphenyltetracarboxylic acid]	the 3,4,3',4'-isomer in order of decreasing solubility	
